The test system of assay [1] is protoporphyrin IX (PPIX). As to the kind of experiment: Protoporphyrin IX levels in treated M. furfur cells by HPLC. It is filed as cell-based. The settings on record: for PPIX levels upon treatment: non-chelator antifungals, Table 11. The text has this: PPIX absorb light in the 400 nm range, and when light is absorbed, PPIX transitions to an excited triplet state that can react with triplet oxygen to produce singlet oxygen or the excited porphyrin can generate ROS through single electron processes. These reactive species result in a loss of cell viability.
(§1) M. furfur cells are exposed to other antifungals that are not considered chelators (i.e. selenium sulfide (SeSx), Sulfur, Climbazole, and Terbinafine). After treatment, cells are then exposed to light, or not exposed to light. Both OD are measured to measure growth and PPIX levels are measured.

Assay [2] has as its system protoporphyrin IX (PPIX). The assay is described as above. The assay is classed as cell-based.
The next assay deals with M. furfur cells. As to the kind of experiment: Non-chelator antifungals with or without light, M. furfur growth (Table 11). It is filed as cell-based, Malassezia furfur. The settings on record: for effect of adding light on efficacy: non-chelator antifungals, OD values of Table 11. How it is done: as §1
In another assay the test system is M. furfur CBS 7982. Briefly: Fractional Inhibitor Concentration (FIC): antimicrobial plus 409 nm light on M. furfur growth. It is filed as cell-based, Malassezia furfur. The settings on record: for growth, OD 600 nm: 27 h growth. How it is done:
Fractional Inhibitor Concentration (FIC) is a conventional methodology for evaluating the interaction of two antimicrobial chemicals. […] In an embodiment of the present invention, FIC is used to determine combinatorial effects of one chemical and exposure to light on Malassezia growth and/or viability in an in vitro system.
• 1. M. furfur CBS 7982 cells are exposed to a varying concentrations of an antimicrobial active (e.g. ZPT, Piroctone Olamine) for a specified amount of time (e.g. 2 min to 3 hours). • 2. After exposure, the antimicrobial is washed away by centrifugation of the cells and a series of washes • 3. Cells are then exposed to light at a wavelength of 409 nm for varying lengths of time • 4. Cells are then allowed to grow up overnight (e.g. 17 h) to determine the impact of the treatment on viability and growth of the organism by measuring OD600 II. Data Analysis: • 1. Inhibition of growth is determined to be where the OD value obtained is <=50% of the untreated control • 2. The lowest concentration value of the antimicrobial agent which inhibits growth is determined • 3. Likewise, the shortest light exposure time is determined that gives growth inhibition • 4. Finally, the combination of the lowest concentration of the antimicrobial and the shortest light exposure time that provides growth inhibition is determined • 5. The FIC value is determined using the calculation below:
[formula] • 6. The combinatorial effect of the antimicrobial and light is classified according to the chart below: […]
M. furfur is incubated for one hour with varying concentrations of Piroctone Olamine. Cell pellets are collected by centrifugation so that most of the anti-fungal material has been removed. The cell pellet is suspended in PBS and 500 uL samples are distributed to four 12 well plates and treated with light (409 nm) for 1, 10 or 60 minutes or stored in the dark. Samples are then diluted into mDixon, and incubated for 16 h with subsequent growth measured by OD 600 nm.
M. furfur is incubated for one hour with varying concentrations of Hinokitiol. Cell pellets are collected by centrifugation so that most of the anti-fungal material has been removed. The cell pellet is suspended in PBS and 500 uL samples are distributed to four 12 well plates and treated with light (409 nm) for 1, 10 or 60 minutes or stored in the dark. Samples are then diluted into mDixon, and incubated for 27 h with subsequent growth measured by OD 600 nm. […]

Experimental findings from patent US11771765B2, “Light augmented treatment method” (The Procter & Gamble Company, priority 2019, dated 2023) are described below.

As for `S=[Se]=S` [SeSx, selenium sulfide], the “PPIX levels upon treatment” value in the assay on protoporphyrin IX (PPIX) [1] is reported as “PPIX levels do not change”. Moreover, the values for the PPIX in the assay with protoporphyrin IX (PPIX) [2] (0.4 ppm (Table 11)) and in the assay with protoporphyrin IX (PPIX) [2] (0.8 ppm (Table 11)) were 2.6 ng and 1.2 ng, respectively. The OD600 worked out at 3.31 in the assay on M. furfur cells (0.4 ppm, Dark); 2.27 with M. furfur cells (0.4 ppm, Light); 1.51 in the assay on M. furfur cells (0.8 ppm, Dark); 1.44 with M. furfur cells (0.8 ppm, Light). The “effect of adding light on efficacy” value with M. furfur cells is listed as “does not increase their efficacy”.

Consider `S1SSSSSSS1` [Sulfur], for which the PPIX with protoporphyrin IX (PPIX) [1] (8 ppm (Table 11)) is 1.6 ng. Further, in the assay on protoporphyrin IX (PPIX) [1], the “PPIX levels upon treatment” value is recorded as “PPIX levels do not change”. The OD600 is 4.52 in the assay on M. furfur cells (8 ppm, Dark) and 3.62 in the assay on M. furfur cells (8 ppm, Light). Besides, in the assay on M. furfur cells, the “effect of adding light on efficacy” value is “does not increase their efficacy”.

As to `CC(C)c1cccc(=O)c(O)c1` [Hinokitiol], the “shortest light exposure time when applied in combination to give growth inhibition” value in the assay with M. furfur CBS 7982 (409 nm light, with the lowest inhibiting concentration) was found to be 1 min. The “growth, OD 600 nm” value in the assay with M. furfur CBS 7982 (Hinokitiol 3 ppm 1 h, 409 nm light 0 min) turned out to be 8.3; in the assay on M. furfur CBS 7982 (Hinokitiol 3 ppm 1 h, 409 nm light 1 min), 7.9; in the assay on M. furfur CBS 7982 (Hinokitiol 3 ppm 1 h, 409 nm light 10 min), 4.6; in the assay with M. furfur CBS 7982 (Hinokitiol 3 ppm 1 h, 409 nm light 60 min), 4.5; in the assay with M. furfur CBS 7982 (Hinokitiol 6 ppm 1 h, 409 nm light 0 min), 8.5; with M. furfur CBS 7982 (Hinokitiol 6 ppm 1 h, 409 nm light 1 min), 1.8. For the same compound, the “growth, OD 600 nm” value was found to be 0.3 in the assay on M. furfur CBS 7982 (Hinokitiol 6 ppm 1 h, 409 nm light 10 min); 0.4 in the assay with M. furfur CBS 7982 (Hinokitiol 6 ppm 1 h, 409 nm light 60 min); 8.6 in the assay with M. furfur CBS 7982 (Hinokitiol 12 ppm 1 h, 409 nm light 0 min); 2.3 in the assay on M. furfur CBS 7982 (Hinokitiol 12 ppm 1 h, 409 nm light 1 min); 0.2 in the assay on M. furfur CBS 7982 (Hinokitiol 12 ppm 1 h, 409 nm light 10 min); 0.3 in the assay on M. furfur CBS 7982 (Hinokitiol 12 ppm 1 h, 409 nm light 60 min). Moreover, the “growth, OD 600 nm” value is listed as 6.1 with M. furfur CBS 7982 (Hinokitiol 24 ppm 1 h, 409 nm light 0 min); 0.6 in the assay on M. furfur CBS 7982 (Hinokitiol 24 ppm 1 h, 409 nm light 1 min); 0.2 in the assay with M. furfur CBS 7982 (Hinokitiol 24 ppm 1 h, 409 nm light 10 min); 0.2 with M. furfur CBS 7982 (Hinokitiol 24 ppm 1 h, 409 nm light 60 min); 5.7 in the assay on M. furfur CBS 7982 (Hinokitiol 48 ppm 1 h, 409 nm light 0 min); 0.2 in the assay on M. furfur CBS 7982 (Hinokitiol 48 ppm 1 h, 409 nm light 1 min). The “growth, OD 600 nm” value in the assay on M. furfur CBS 7982 (Hinokitiol 48 ppm 1 h, 409 nm light 10 min) is listed as 0.1; in the assay with M. furfur CBS 7982 (Hinokitiol 48 ppm 1 h, 409 nm light 60 min), 0.1; with M. furfur CBS 7982 (Hinokitiol 96 ppm 1 h, 409 nm light 0 min) it was 5.9; in the assay with M. furfur CBS 7982 (Hinokitiol 96 ppm 1 h, 409 nm light 1 min) it was 0.3; in the assay on M. furfur CBS 7982 (Hinokitiol 96 ppm 1 h, 409 nm light 10 min), 0.0; in the assay with M. furfur CBS 7982 (Hinokitiol 96 ppm 1 h, 409 nm light 60 min), 0.0. In addition, the “lowest concentration to give growth inhibition” value with M. furfur CBS 7982 (antimicrobial alone, no light, inhibition = OD <=50% of untreated control) is above 96 ppm. Moreover, the FIC value with M. furfur CBS 7982 (antimicrobial plus 409 nm light) turned out to be 0.08. For the same compound, the “Combinatorial Effect” value in the assay with M. furfur CBS 7982 (antimicrobial plus 409 nm light, classified by FIC value) is reported as “synergistic”. In addition, the “lowest concentration when applied in combination with light to give growth inhibition” value in the assay with M. furfur CBS 7982 (with 409 nm light, inhibition = OD <=50% of untreated control) came out at 6 ppm.

As for `CN(C/C=C/C#CC(C)(C)C)Cc1cccc2ccccc12` [Terbinafine], the PPIX with protoporphyrin IX (PPIX) [1] (0.5 ppm (Table 11, second part)) was found to be 6.7 ng. The “PPIX levels upon treatment” value with protoporphyrin IX (PPIX) [1] is “PPIX levels do not change”. For the same compound, the OD600 is recorded as 12.5 in the assay with M. furfur cells (0.5 ppm, Dark (second part)) and 10.6 in the assay with M. furfur cells (0.5 ppm, Light (second part)). Besides, the “effect of adding light on efficacy” value with M. furfur cells is “does not increase their efficacy”.

With `CC(C)(C)C(=O)C(Oc1ccc(Cl)cc1)n1ccnc1` (stereo not shown) [Climbazole], the PPIX in the assay with protoporphyrin IX (PPIX) [1] (1 ppm (Table 11, second part)) is 4.5 ng. Moreover, in the assay with protoporphyrin IX (PPIX) [1], the “PPIX levels upon treatment” value is “PPIX levels do not change”. The OD600 is listed as 11.9 in the assay on M. furfur cells (1 ppm, Dark (second part)) and 10.2 with M. furfur cells (1 ppm, Light (second part)). Also, the “effect of adding light on efficacy” value in the assay on M. furfur cells is recorded as “does not increase their efficacy”.
